Experimental data reported in US6482810B1, “Antibiotic composition for inhibition of angiogenesis” (priority 1991, dated 2002).
Where two headings read alike, the source gives them in different places.

Tests used:
[1] = test system: tumor-induced angiogenesis (VX2 carcinoma) in the rabbit cornea; experiment: Rabbit cornea angiogenesis assay with VX2 carcinoma and controlled release polymers; details: for factor of decrease of tumor-induced angiogenesis: versus empty polymer
[2] = test system: angiogenesis in the cornea; details: rabbit, in vivo
[3] = test system: angiogenesis in the cornea; experiment: Drug-containing polymers implanted alone in the cornea; details: polymer without tumor in the cornea

angiogenesis induced by polymer implanted alone [2] | Compound | inhibition of tumor angiogenesis (angiogenesis index) ([1]; controlled release from EVAc polymer, 7, 14 and 21 days, P<0.05) | factor of decrease of tumor-induced angiogenesis ([1]; 7 days after implantation) | factor of decrease of tumor-induced angiogenesis ([1]; 14 days after implantation) | factor of decrease of tumor-induced angiogenesis ([1]; 21 days after implantation) | angiogenesis induced by polymer implanted alone [3]
did not induce angiogenesis | CC(=O)OCC(=O)[C@@]1(O)CC[C@H]2[C@@H]3CCC4=CC(=O)CC[C@]4(C)[C@H]3C(=O)C[C@@]21C [cortisone, cortisone acetate] | significantly inhibited | – | – | – | –
– | CN(C)c1ccc(O)c2c1C[C@H]1C[C@H]3[C@H](N(C)C)C(O)=C(C(N)=O)C(=O)[C@@]3(O)C(O)=C1C2=O [minocycline] | – | 4.5 | 4.4 | 2.9 | did not induce angiogenesis
– | heparin | – | – | – | – | promote a mild angiogenic response
